The values that follow come from article PMC7617869, “Molecular glues that inhibit deubiquitylase activity and inflammatory signaling” (Nature Structural & Molecular Biology, 2025).

“And” between values parts separate entries of the source, which are not always exact repeats. Identical values can stand only once.

Common to all, as to assay type: cell-based, human
The test system of test [1] is IFN-stimulated response elements (ISRE) in THP-1 cells. The test is described as follows: THP-1 ISRE luciferase reporter, IFNα2 stimulation. As to conditions: IFN + compound; replicate values. As for the experimental part:
THP-1 in vitro experiments
THP-1-DualTM cells (InvivoGen), derived from a human monocytic cell line, isolated from a patient with acute monocytic leukaemia, were cultured as per manufacturer’s guidance. Cells were seeded at 1x10^6 cells/mL in RPMI1640 media containing 10% fetal bovine serum (FBS), 1% penicillin-streptomycin (PS) (Gibco Laboratories) with DMSO (0.1%) (control) or in media containing JMS-175- […]
ng/mL) (Merck Life Science), ODN 2216 (1 µM) (Miltenyi Biotec), or Poly:IC (1 µg/mL) (InvivoGen).
Tofacitinib (Cambridge Biosciences) at 0.4 µM was used for comparison against a known JAK inhibitor.
Cells were centrifuged at 300 g for 5 minutes. Supernatant was removed and subjected to simultaneous study of the NF -κB pathway, by monitoring the activity of secreted alkaline phosphatase reporter (SEAP), and the IRF pathway, by assessing the activity o f a secreted Lucia luciferase using QUANTI - Blue ™ Solution and QUANTI -Luc™ 4 Lucia/Gaussia (InvivoGen), respectively, as per manufacturer’s instructions. Pelleted cells were used for FACS analysis using IFNα/β R1 APC-conjugated antibody or isotype control (Biotechne, FAB245A and IC002A), or unstained staining procedure with and without Zombie GreenTM (Biolegend). Samples were analysed using CytoFlex LX (Beckman) (50,000 live cells per condition). Median fluorescence intensity for APC channel gated on single cell live cells was analysed and compared as a percentage to control (no stimulation condition). […]
Background: A reporter such as luciferase makes a cellular process visible.

Test [2] relates to ISG expression in MCF10A Cas9 cells expressing BRCC45 R137A. The test is described as follows: MCF10A BRCC45 R137A ISG expression (RT–qPCR). Set-up: scale not given here. The note with it: BRCC45 KO+ BRCC45 R137A; replicate values. The protocol:
Supplementary Protocols 1. Experimental procedures for cell biology experiments. […]
Media supplements including human insulin solution (Santa Cruz Biotechnology, #sc-360248), cholera toxin from vibrio (Sigma Aldrich, #C8052-2MG), recombinant human EGF (PeproTech, #AF-100-15-100µg), hydrocortisone (Sigma-Aldrich, #H-0888) were used to grow MCF10A cells. The 4–12% Bis-Tris SDS-PAGE gels, cell culture media, horse serum and other materials for tissue culture were purchased from Invitrogen. LipoD293 (SigmaGen, #SL100668) was used for all the transfections to generate knock out cell lines.
Immortalised breast epithelial cell line MCF10A were cultured in 10 cm plates with Dulbecco’s Modified Eagle Medium (DMEM) + F-12 (1:1) supplemented with 5% horse serum, 100 ng/mL cholera toxin, 10 […]
Real-time quantitative PCR
1x10^5 MCF10A cells were cultured as described above and seeded into 6 well plates. Cells were left to reach ultra-confluence. Once confluent, cells were washed with PBS and starved for 30 minutes in 2 mL DMEM + F-12 (1:1) supplemented with 1% horse serum. After 30 minutes cells were pre-treated with either DMSO (0.1%) (Control and IFN only) or BRISC inhibitor (2.5 µM) for 15 minutes. After 15 minutes, hIFN2α (75 ng/mL) was added to the media and mixed. Cells were treated for 4 hours. Cells were washed with ice cold PBS and scraped with cell scrapers into 350 µL RNAlater buffer and RNA […]
#79254). Isolated RNA was quantified using a Nanodrop spectrophotometer. RNA was converted into cDNA and the complementary DNA was used for real-time quantitative PCR analysis of expression of interferon stimulated genes (ISG15, IFIT1, IFIT2, IFITM1, CXCL10 and RNA18S) using an Applied Biosystems Quantstudio 6 RT-PCR system. All experiments were carried out in triplicate.

Test [3] has as its system IFNAR1 cell surface levels in MCF10A BRCC45 WT cells. Put plainly: MCF10A BRCC45 WT IFNAR1 cell surface levels (FACS). The note with it: for IFNAR1 cell surface levels (Fig. 5g): BRCC45 KO + BRCC45 WT, IFN + compound, No IFN about 100; for IFNAR1 cell surface levels: BRCC45 WT cells, IFN 50 ng/ml, 5 μM, 90 min. As for the experimental part:
To study the direct effect of BRISC DUB inhibitors, IFNAR1 surface levels were measured using flow cytometry (FACS) analysis. For this purpose, MCF10A WT and MCF10A BRCC45 KO cells expressing […]
BRCC45 WT or BRCC45 R137A were used. […]
minutes prior to the addition of 50 ng/mL of hIFN-Iα for various time points (45 minutes and 90 minutes).
After IFN treatment, cells were dissociated from plate using cell dissociation Buffer (ThermoFisher Scientific, #13150016) and were stained with LIVE/DEAD™ Fixable Violet Dead Cell Stain Kit, for 405 nm excitation (ThermoFisher Scientific, #L34963) for 30 minutes, as per the kit protocol. The cells were then washed using FACS buffer (DPBS, 1% BSA, 2 mM EDTA, 0.09% sodium azide) and transferred to 96-well round bottom plates. Resuspended cells were divided into three repeats for each sample, each was surface stained for 1 hour at 4 °C with: 1. Human IFN-alpha/beta R1 Antibody (R&D systems, #MAB245), 2. Mouse IgG1 Isotype Control (R&D systems, #MAB002), 3. FACS buffer (control cells).
Following incubation, cells were washed once with FACS buffer and were labelled for 30 minutes at 4 °C with either Biotin-SP-conjugated AffiniPure Donkey Anti-Mouse IgG (H+L) (Jackson Immunoresearch Laboratories) for samples 1 and 2 or with FACS buffer for sample 3. Cells were washed twice with FACS buffer and were labelled for 15 minutes at 4 °C with either R-Phycoerythrin-conjugated Streptavidin (Jackson Immunoresearch Laboratories) for samples 1 and 2 or with FACS buffer for sample 3. Cells were washed 3 times with FACS buffer and were analysed by FACS (MACSQuant, Miltenyi Biotec). For each sample from group 1 the Geo mean fluorescence intensity (MFI) of its isotype sample was reduced. IFNAR1 cell surface percentage was calculated by 100*(MFI

As to `Cn1cc(NC(=O)c2c(Cl)cccc2Cl)c(C(=O)NC2CCN(C(=O)c3c(Cl)cccc3Cl)CC2)n1` [AP-5-145], the “ISRE luciferase reporter signal (Fig. 5a)” value in test [1] is 5071.67 and 5115.33 and 6389 and 6090.67. In addition, in test [2], the “ISG expression (Fig. 5b)” value is 1.156 and 0.9393 and 0.8616 and 0.9356 and 0.9314; the “ISG expression (Fig. 5c)” value is 1.216 and 0.9273 and 0.916 and 0.9352 and 0.7895; the “ISG expression (Fig. 5e)” value was 1.091 and 0.9001 and 0.8733 and 0.8458 and 0.7765; the “ISG expression (Fig. 5f)” value is 1.662 and 0.8736 and 0.8819 and 0.8534 and 1.058. Besides, the “ISG expression (Fig. 5d)” value in test [2] is 1.117 and 1.15 and 0.9989 and 1.074 and 0.7573. For the same compound, the “IFNAR1 cell surface levels (Fig. 5g)” value in test [3] is 55.2385 and 54.5047 and 53.242.

`O=C(NC1C2CNCC21)c1nn(C(=O)c2c(Cl)cccc2Cl)cc1NC(=O)c1c(Cl)cccc1Cl` (centres unmarked) [FX-171-C]: the “ISRE luciferase reporter signal (Fig. 5a)” value in test [1] was 3973.33 and 4177.33 and 5441.67 and 5023.67. In test [2], the “ISG expression (Fig. 5b)” value is 1.886 and 0.9791 and 0.9889 and 0.9654 and 2.3346; the “ISG expression (Fig. 5c)” value was 1.805 and 0.9044 and 1.045 and 1.083 and 2.1; the “ISG expression (Fig. 5e)” value was 1.992 and 0.8788 and 0.9319 and 1.019 and 2.187; the “ISG expression (Fig. 5f)” value is 1.937 and 0.8462 and 0.8933 and 0.87 and 0.6063. Besides, in test [2], the “ISG expression (Fig. 5d)” value was 2.039 and 1.092 and 1.112 and 1.2514 and 2.244. Besides, in test [3], the “IFNAR1 cell surface levels (Fig. 5g)” value is 39.3476 and 40.435 and 39.71; the “IFNAR1 cell surface levels” value was “reduction in IFNAR1 cell surface levels”.

Regarding `O=C(NC1CCNCC1)c1nn(C(=O)c2c(Cl)cccc2Cl)cc1NC(=O)c1c(Cl)cccc1Cl` [JMS-175-2], the “ISRE luciferase reporter signal (Fig. 5a)” value in test [1] is 2914 and 3263.67 and 4737.67 and 4742.67. In test [2], the “ISG expression (Fig. 5b)” value is 1.361 and 1.11 and 1.149 and 1.082 and 0.8783; the “ISG expression (Fig. 5c)” value is 1.325 and 1.127 and 1.329 and 1.145 and 0.8628; the “ISG expression (Fig. 5e)” value was 1.156 and 1.163 and 1.393 and 1.185 and 1.136; the “ISG expression (Fig. 5f)” value was 1.041 and 1.139 and 1.224 and 1.412 and 1.207. In addition, in test [2], the “ISG expression (Fig. 5d)” value was 1.23 and 1.313 and 1.719 and 1.523 and 0.8668. In test [3], the “IFNAR1 cell surface levels (Fig. 5g)” value is 38.381 and 37.8977 and 40.435; the “IFNAR1 cell surface levels” value is on record as “reduction in IFNAR1 cell surface levels”.
